Reference: US10188634B2, “3-(3H-imidazo[4,5-C]pyridin-2-yl)-1 H-pyrazolo[4,3-B]pyridines and therapeutic uses thereof” (Samumed, LLC, priority 2015, dated 2019)

Legend:
[1] = tested on: LL29 cells (primary human fibroblasts derived from IPF patients) treated with TGF-β1, α-smooth muscle actin; experiment: Inhibition of the fibrotic process: αSMA staining in TGF-β1 treated primary human fibroblasts from IPF patients (LL29 cells); type: cell-based; conditions: Fibroblast, 96 h; for EC50: LL29 cells treated with TGF-β1 (20 ng/mL), 4 days; for inhibition at 10 µM: LL29 cells treated with TGF-β1, 4 days, read-out: percent inhibition in brackets (given for EC50 >10 μM)
SW480 colon cancer cells = experiment: Cell viability assay (CellTiter-Blue) in SW480 colon cancer cells; type: cell-based; conditions: Homo sapiens, 96 h; for EC50: four days incubation, CellTiter-Blue cell viability; for inhibition at 10 µM: four days, CellTiter-Blue, read-out: percent inhibition at 10 μM (given for EC50 of >10 μM)
Outline: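 Four-day exposure of SW480 cells (~2×10^3/well) to compound from 10 μM down to 0.004 μM in 1:3 steps, in duplicate. Resorufin fluorescence from CellTiter-Blue after ~3 h served as the viability read-out. EC50 values came from nonlinear curve fits, with % inhibition at 10 μM given where EC50 >10 μM.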

SMILES | EC50 [1] | EC50 (SW480 colon cancer cells) | inhibition at 10 µM [1] | inhibition at 10 µM (SW480 colon cancer cells)
Cc1ccc(-c2cncc3[nH]c(-c4n[nH]c5ccc(C6=CCNCC6)nc45)nc23)s1 [Compound 686, 3-(7-(5-Methylthiophen-2-yl)-3H-imidazo[4,5-c]pyridin-2-yl)-5-(1,2,3,6-tetrahydropyridin-4-yl)-1H-pyrazolo[4,3-b]pyridine] | 4.91 µM | 6.11 µM | – | –
Cn1cc(-c2ccc3[nH]nc(-c4nc5c(-c6cc(F)cc(CNS(C)(=O)=O)c6)cncc5[nH]4)c3n2)cn1 [Compound 720, N-(3-Fluoro-5-(2-(5-(1-methyl-1H-pyrazol-4-yl)-1H-pyrazolo[4,3-b]pyridin-3-yl)-3H-imidazo[4,5-c]pyridin-7-yl)benzyl)methanesulfonamide] | > 10 µM | > 10 µM | 3.8% | 0%
CS(=O)(=O)NCc1cc(F)cc(-c2cncc3[nH]c(-c4n[nH]c5ccc(-c6cncc(NC(=O)CC7CCNCC7)c6)nc45)nc23)c1 [Compound 725, N-(5-(3-(7-(3-Fluoro-5-(methylsulfonamidomethyl)phenyl)-3H-imidazo[4,5-c]pyridin-2-yl)-1H-pyrazolo[4,3-b]pyridin-5-yl)pyridin-3-yl)-2-(piperidin-4-yl)acetamide] | > 10 µM | > 10 µM | 40.9% | 14.6%
CN(C)CCNc1cc(F)cc(-c2cncc3[nH]c(-c4n[nH]c5ccc(-c6cncc(OCCN7CCCC7)c6)nc45)nc23)c1 [Compound 742, N^1-(3-Fluoro-5-(2-(5-(5-(2-(pyrrolidin-1-yl)ethoxy)pyridin-3-yl)-1H-pyrazolo[4,3-b]pyridin-3-yl)-3H-imidazo[4,5-c]pyridin-7-yl)phenyl)-N^2,N^2-dimethylethane-1,2-diamine] | > 10 µM | > 10 µM | 0% | 8.2%
CN(C)CC(=O)Nc1cncc(-c2ccc3[nH]nc(-c4nc5c(-c6cccc(F)c6)cncc5[nH]4)c3n2)c1 [Compound 925, 2-(Dimethylamino)-N-(5-(3-(7-(3-fluorophenyl)-3H-imidazo[4,5-c]pyridin-2-yl)-1H-pyrazolo[4,3-b]pyridin-5-yl)pyridin-3-yl)acetamide] | > 10 µM | > 10 µM | 8.3% | 16.1%
COc1cccc(-c2cncc3[nH]c(-c4n[nH]c5ccc(-c6cccnc6)nc45)nc23)c1 [Compound 949, 3-(7-(3-Methoxylphenyl)-3H-imidazo[4,5-c]pyridin-2-yl)-5-(pyridin-3-yl)-1H-pyrazolo[4,3-b]pyridine] | 6.53 µM | > 10 µM | – | 6.9%
COc1cccc(-c2cncc3[nH]c(-c4n[nH]c5ccc(-c6cncc(NC(=O)Cc7ccccc7)c6)nc45)nc23)c1 [Compound 955, N-(5-(3-(7-(3-methoxylphenyl)-3H-imidazo[4,5-c]pyridin-2-yl)-1H-pyrazolo[4,3-b]pyridin-5-yl)pyridin-3-yl)-2-phenylacetamide] | > 10 µM | > 10 µM | 4.2% | 2.7%
COc1cccc(-c2cncc3[nH]c(-c4n[nH]c5ccc(-c6cncc(NC(=O)CC(C)(C)C)c6)nc45)nc23)c1 [Compound 961, N-(5-(3-(7-(3-methoxylphenyl)-3H-imidazo[4,5-c]pyridin-2-yl)-1H-pyrazolo[4,3-b]pyridin-5-yl)pyridin-3-yl)-3,3-dimethylbutanamide] | > 10 µM | > 10 µM | 0% | 0.4%
COc1cccc(-c2cncc3[nH]c(-c4n[nH]c5ccc(-c6cncc(NC(=O)C7CCCCC7)c6)nc45)nc23)c1 [Compound 967, N-(5-(3-(7-(3-Methoxylphenyl)-3H-imidazo[4,5-c]pyridin-2-yl)-1H-pyrazolo[4,3-b]pyridin-5-yl)pyridin-3-yl)cyclohexanecarboxamide] | > 10 µM | > 10 µM | 0% | 10.8%
COc1cccc(-c2cncc3[nH]c(-c4n[nH]c5ccc(-c6cn[nH]c6)nc45)nc23)c1 [Compound 975, 3-(7-(3-Methoxylphenyl)-3H-imidazo[4,5-c]pyridin-2-yl)-5-(1H-pyrazol-4-yl)-1H-pyrazolo[4,3-b]pyridine] | > 10 µM | > 10 µM | 43.2% | 4.1%
COc1cccc(-c2cncc3[nH]c(-c4n[nH]c5ccc(-c6cncc(OC7CCNCC7)c6)nc45)nc23)c1 [Compound 980, 3-(7-(3-Methoxylphenyl)-3H-imidazo[4,5-c]pyridin-2-yl)-5-(5-(piperidin-4-yloxy)pyridin-3-yl)-1H-pyrazolo[4,3-b]pyridine] | 2.72 µM | > 10 µM | – | 19.6%
COc1cccc(-c2cncc3[nH]c(-c4n[nH]c5ccc(-c6cncc(O)c6)nc45)nc23)c1 [Compound 985, 5-(3-(7-(3-Methoxylphenyl)-3H-imidazo[4,5-c]pyridin-2-yl)-1H-pyrazolo[4,3-b]pyridin-5-yl)pyridin-3-ol] | 2.35 µM | > 10 µM | – | 7.1%
NC1CN(c2cncc(-c3ccc4[nH]nc(-c5nc6c(-c7ccc(Cl)s7)cncc6[nH]5)c4n3)n2)C1 [Compound 1023, 1-(6-(3-(7-(5-Chlorothiophen-2-yl)-3H-imidazo[4,5-c]pyridin-2-yl)-1H-pyrazolo[4,3-b]pyridin-5-yl)pyrazin-2-yl)azetidin-3-amine] | 6.19 µM | > 10 µM | – | 7.4%
c1cc2c(cc1-c1cncc3[nH]c(-c4n[nH]c5ccc(C6CCNCC6)nc45)nc13)OCO2 [Compound 1063, 3-(7-(Benzo[d][1,3]dioxol-5-yl)-3H-imidazo[4,5-c]pyridin-2-yl)-5-(piperidin-4-yl)-1H-pyrazolo[4,3-b]pyridine] | > 10 µM | > 10 µM | 31.3% | 4.8%
C1=C(c2ccc3[nH]nc(-c4nc5c(-c6ccc7c(c6)OCO7)cncc5[nH]4)c3n2)CCNC1 [Compound 1064, 3-(7-(Benzo[d][1,3]dioxol-5-yl)-3H-imidazo[4,5-c]pyridin-2-yl)-5-(1,2,3,6-tetrahydropyridin-4-yl)-1H-pyrazolo[4,3-b]pyridine] | 4.03 µM | > 10 µM | – | 0.1%
Cc1ncc(-c2ccc3[nH]nc(-c4nc5c(-c6cccc(F)c6)cncc5[nH]4)c3n2)s1 [Compound 1081, 5-(3-(7-(3-Fluorophenyl)-3H-imidazo[4,5-c]pyridin-2-yl)-1H-pyrazolo[4,3-b]pyridin-5-yl)-2-methylthiazole] | 1.96 µM | > 10 µM | – | 23.5%
Cc1cnc(-c2ccc3[nH]nc(-c4nc5c(-c6cccc(F)c6)cncc5[nH]4)c3n2)s1 [Compound 1082, 2-(3-(7-(3-Fluorophenyl)-3H-imidazo[4,5-c]pyridin-2-yl)-1H-pyrazolo[4,3-b]pyridin-5-yl)-5-methylthiazole] | > 10 µM | > 10 µM | 0% | 11.5%
Cn1cc(-c2ccc3[nH]nc(-c4nc5c(-c6ccc(F)cc6)cncc5[nH]4)c3n2)c(CO)n1 [Compound 1084, (4-(3-(7-(4-Fluorophenyl)-3H-imidazo[4,5-c]pyridin-2-yl)-1H-pyrazolo[4,3-b]pyridin-5-yl)-1-methyl-1H-pyrazol-3-yl)methanol] | 2.3 µM | > 10 µM | – | 5.7%
Cn1cc(-c2ccc3[nH]nc(-c4nc5c(N6CCCCC6)cncc5[nH]4)c3n2)c(CO)n1 [Compound 1089, (1-Methyl-4-(3-(7-(piperidin-1-yl)-3H-imidazo[4,5-c]pyridin-2-yl)-1H-pyrazolo[4,3-b]pyridin-5-yl)-1H-pyrazol-3-yl)methanol] | > 10 µM | > 10 µM | 36% | 15.5%
Cn1cc(-c2ccc3[nH]nc(-c4nc5c(-c6ccc7c(c6)OCO7)cncc5[nH]4)c3n2)c(CO)n1 [Compound 1106, (4-(3-(7-(Benzo[d][1,3]dioxol-5-yl)-3H-imidazo[4,5-c]pyridin-2-yl)-1H-pyrazolo[4,3-b]pyridin-5-yl)-1-methyl-1H-pyrazol-3-yl)methanol] | 2.42 µM | > 10 µM | – | 3.1%
